From the NIST ThermoML archive (doi:10.1016/j.jct.2007.03.005)
± gives the expanded uncertainty stated by the source.

Assays:
[1] = Molar enthalpy of transition or fusion; details: DSC
[2] = DTA

| Structure (SMILES) | Molar enthalpy of transition or fusion ([1]; Crystal 1) [kcal/mol] | Normal melting temperature ([2]; Crystal 1) [°C] | Triple point temperature ([2]; Crystal 2) [K] | Molar enthalpy of transition or fusion ([1]; Crystal) [kcal/mol] | Normal melting temperature ([2]; Crystal) [°C] | further results |
| --- | --- | --- | --- | --- | --- | --- |
| N#CCCCCCCCCCCCCC#N [tetradecanedinitrile] | 9.6 ± 0.227 | 36.40 ± 0.8 | 261.05 ± 0.56 | – | – | Molar enthalpy of transition or fusion ([1]; Crystal 2): 0.423 ± 0.0741 kcal/mol |
| N#CCCCCC#N [hexanedinitrile] | 4.31 ± 0.153 | 1.89 ± 0.49 | 270.25 ± 1.9 | – | – | – |
| N#CCCCCCCCCCCC#N [dodecanedinitrile] | – | – | – | 8.21 ± 0.263 | 21.08 ± 0.48 | – |
| N#CCC#N [propanedinitrile] | 2.56 ± 0.11 | 31.89 ± 0.55 | 303.64 ± 2.1 | – | – | Molar enthalpy of transition or fusion ([1]; Crystal 4): 0.103 ± 0.0287 kcal/mol; Triple point temperature ([2]; Crystal 3): 294.24 ± 1.1 K; Triple point temperature ([2]; Crystal 4): 260.9 ± 1.6 K |
| N#CCCCCCCCC#N [nonanedinitrile] | – | – | – | 4.46 ± 0.263 | -22.01 ± 0.55 | – |
| N#CCCC#N [butanedinitrile] | 0.896 ± 0.11 | 57.11 ± 1.4 | 233.59 ± 0.53 | – | – | Molar enthalpy of transition or fusion ([1]; Crystal 2): 1.46 ± 0.0813 kcal/mol |
| N#CCCCCCCCCC#N [decanedinitrile] | 6.73 ± 0.153 | 8.03 ± 0.46 | 278.02 ± 1.9 | – | – | – |
| N#CCCCCCC#N [heptanedinitrile] | 3.59 ± 0.406 | -31.4 ± 0.39 | 236.72 ± 1.8 | – | – | – |
| N#CCCCCCCCCCC#N [undecanodinitrile] | – | – | – | 6.22 ± 0.406 | -7.01 ± 0.73 | – |
| N#CCCCC#N [pentanedinitrile] | – | – | – | 2.88 ± 0.189 | -31.10 ± 0.5 | – |
| N#CCCCCCCC#N [octanedinitrile] | 5.25 ± 0.148 | -4.22 ± 1.1 | 265.82 ± 2.5 | – | – | – |
